Reference: patent publication US20220281848A1, “PYRAZOLE-SUBSTITUTED PYRROLIDINONES AS HERBICIDES” (FMC Corporation, priority 2019, published 2022)

Tests used:
Format in all cases: in vivo
[1] = system: corn (Zea mays, ZEAMX); test: Test A pre-emergence, corn; details: after 13 d
Method in brief: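 After sowing in pots and a single day of glasshouse cultivation, the soil was treated with an aqueous spray of the compound (acetone/water 50:50, 0.5% Tween 20) giving 15.625, 62.5 or 250 g/ha. Evaluation after 13 d used a scale where 0 meant no damage and 100 total damage.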

[2] = system: ivy-leaved morning glory (Ipomoea hederacea, IPOHE); test: Test A post-emergence, ivy-leaved morning glory; details: after 13 d
Method in brief: (§1)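 Visual damage rating (0 no damage to 100 total damage) was made 13 d after spraying. The spray was 15.625, 62.5 or 250 g/ha in 50:50 acetone/water with 0.5% Tween 20, applied to 8-day-old glasshouse plants kept at 24/16° C, 14 h light and 65% humidity.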

[3] = system: velvetleaf (Abutilon theophrasti, ABUTH); test: Test A post-emergence, velvetleaf; details: after 13 d
Method in brief: as §1

[4] = system: wheat; test: Test D pre-emergence, wheat seed treated with a herbicide safener; details: 100=total damage, 0=no damage
Method in brief: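 Damage, on a scale where 100 is total and 0 is none, was scored 15 d after post-emergence spraying (about 12-day-old plants) or 20 DAA after pre-emergence spraying (day 1). Maize and wheat came from herbicide-safener-treated seed and were kept in a glasshouse (24/18 or 20/16 °C, 16 h light, 65% humidity). The spray liquid was the test formulation diluted in 0.2% v/v aqueous adjuvant.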

[5] = system: plants; test: Test D post-emergence, other plants of Tables D2 and D4; details: for ALOMY damage rating (100=total damage to plant; 0=no damage to plant) / AVEFA damage rating (100=total damage to plant; 0=no damage to plant) / BEAVA damage rating (100=total damage to plant; 0=no damage to plant) / BROTE damage rating (100=total damage to plant; 0=no damage to plant) / BRSNN damage rating (100=total damage to plant; 0=no damage to plant) / CHEAL damage rating (100=total damage to plant; 0=no damage to plant) / GALAP damage rating (100=total damage to plant; 0=no damage to plant) / HORVW damage rating (100=total damage to plant; 0=no damage to plant) / KCHSC damage rating (100=total damage to plant; 0=no damage to plant) / LOLPE damage rating (100=total damage to plant; 0=no damage to plant) / POAAN damage rating (100=total damage to plant; 0=no damage to plant) / POLCO damage rating (100=total damage to plant; 0=no damage to plant) / SINAR damage rating (100=total damage to plant; 0=no damage to plant) / STEME damage rating (100=total damage to plant; 0=no damage to plant) / VERPE damage rating (100=total damage to plant; 0=no damage to plant): "Cereals" Postemergent, evaluated after 15 d; for damage to plant (100=total damage to plant; 0=no damage to plant), ABUTH / damage to plant (100=total damage to plant; 0=no damage to plant), AMARE / damage to plant (100=total damage to plant; 0=no damage to plant), BIDPI / damage to plant (100=total damage to plant; 0=no damage to plant), BRAPL / damage to plant (100=total damage to plant; 0=no damage to plant), CYPES / damage to plant (100=total damage to plant; 0=no damage to plant), DIGSA / damage to plant (100=total damage to plant; 0=no damage to plant), ECHCG / damage to plant (100=total damage to plant; 0=no damage to plant), ELEIN / damage to plant (100=total damage to plant; 0=no damage to plant), EPHHL / damage to plant (100=total damage to plant; 0=no damage to plant), GLXMA / damage to plant (100=total damage to plant; 0=no damage to plant), IPOHE / damage to plant (100=total damage to plant; 0=no damage to plant), ORYSA / damage to plant (100=total damage to plant; 0=no damage to plant), PANMI / damage to plant (100=total damage to plant; 0=no damage to plant), SETFA / damage to plant (100=total damage to plant; 0=no damage to plant), SORVU: post-emergence
Method in brief: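 Seeds treated with herbicide safener; sown in soil; glasshouse, 16 h light, 65% humidity. Sprayed day 1 (pre) or ~day 12 (post). Spray in 0.2% v/v adjuvant. Scored 0–100 damage: 20 DAA pre, 15 d post.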

## CN1CC(c2cc(C(F)(F)F)n(C)n2)C(C(=O)Nc2ccc(F)cc2C(C)(F)F)C1=O (racemic) [Compound 26]
[1]; Pre-Emergence at 62.5 g/ha
  damage to plant (100=total damage; 0=no damage) ZEAMX: 70
[1]; Pre-Emergence at 250 g/ha
  damage to plant (100=total damage; 0=no damage) ZEAMX: 90
[2]; Post-Emergence at 62.5 g/ha
  damage to plant (100=total damage; 0=no damage) IPOHE: 20
[2]; Post-Emergence at 250 g/ha
  damage to plant (100=total damage; 0=no damage) IPOHE: 50
[3]; Post-Emergence at 62.5 g/ha
  damage to plant (100=total damage; 0=no damage) ABUTH: 0
[3]; Post-Emergence at 250 g/ha
  damage to plant (100=total damage; 0=no damage) ABUTH: 0
[4]; rate 15, 20 DAA
  damage to plant, TRZAW: 0
[4]; rate 30, 20 DAA
  damage to plant, TRZAW: 0
[4]; rate 60, 20 DAA
  damage to plant, TRZAW: 0
[4]; rate 130, 20 DAA
  damage to plant, TRZAW: 10
[4]; rate 250, 20 DAA
  damage to plant, TRZAW: 70
[4]; rate 500, 20 DAA
  damage to plant, TRZAW: 30
[5]; Rates 130
  ALOMY damage rating (100=total damage to plant; 0=no damage to plant): 0
  AVEFA damage rating (100=total damage to plant; 0=no damage to plant): 0
  BEAVA damage rating (100=total damage to plant; 0=no damage to plant): 0
  BROTE damage rating (100=total damage to plant; 0=no damage to plant): 0
  BRSNN damage rating (100=total damage to plant; 0=no damage to plant): 0
  CHEAL damage rating (100=total damage to plant; 0=no damage to plant): 0
  GALAP damage rating (100=total damage to plant; 0=no damage to plant): 0
  HORVW damage rating (100=total damage to plant; 0=no damage to plant): 0
  KCHSC damage rating (100=total damage to plant; 0=no damage to plant): 0
  LOLPE damage rating (100=total damage to plant; 0=no damage to plant): 0
  POAAN damage rating (100=total damage to plant; 0=no damage to plant): 30
  POLCO damage rating (100=total damage to plant; 0=no damage to plant): 0
  SINAR damage rating (100=total damage to plant; 0=no damage to plant): 0
  STEME damage rating (100=total damage to plant; 0=no damage to plant): 0
  VERPE damage rating (100=total damage to plant; 0=no damage to plant): 0
[5]; Rates 250
  ALOMY damage rating (100=total damage to plant; 0=no damage to plant): 0
  AVEFA damage rating (100=total damage to plant; 0=no damage to plant): 10
  BEAVA damage rating (100=total damage to plant; 0=no damage to plant): 0
  BROTE damage rating (100=total damage to plant; 0=no damage to plant): 0
  BRSNN damage rating (100=total damage to plant; 0=no damage to plant): 0
  CHEAL damage rating (100=total damage to plant; 0=no damage to plant): 0
  GALAP damage rating (100=total damage to plant; 0=no damage to plant): 0
  HORVW damage rating (100=total damage to plant; 0=no damage to plant): 0
  KCHSC damage rating (100=total damage to plant; 0=no damage to plant): 0
  LOLPE damage rating (100=total damage to plant; 0=no damage to plant): 0
  POAAN damage rating (100=total damage to plant; 0=no damage to plant): 20
  POLCO damage rating (100=total damage to plant; 0=no damage to plant): 0
  SINAR damage rating (100=total damage to plant; 0=no damage to plant): 0
  STEME damage rating (100=total damage to plant; 0=no damage to plant): 0
  VERPE damage rating (100=total damage to plant; 0=no damage to plant): 0
[5]; Rates 500
  ALOMY damage rating (100=total damage to plant; 0=no damage to plant): 40
  AVEFA damage rating (100=total damage to plant; 0=no damage to plant): 60
  BEAVA damage rating (100=total damage to plant; 0=no damage to plant): 0
  BROTE damage rating (100=total damage to plant; 0=no damage to plant): 0
  BRSNN damage rating (100=total damage to plant; 0=no damage to plant): 0
  CHEAL damage rating (100=total damage to plant; 0=no damage to plant): 10
  GALAP damage rating (100=total damage to plant; 0=no damage to plant): 60
  HORVW damage rating (100=total damage to plant; 0=no damage to plant): 40
  KCHSC damage rating (100=total damage to plant; 0=no damage to plant): 0
  LOLPE damage rating (100=total damage to plant; 0=no damage to plant): 60
  POAAN damage rating (100=total damage to plant; 0=no damage to plant): 80
  POLCO damage rating (100=total damage to plant; 0=no damage to plant): 0
  SINAR damage rating (100=total damage to plant; 0=no damage to plant): 10
  STEME damage rating (100=total damage to plant; 0=no damage to plant): 0
  VERPE damage rating (100=total damage to plant; 0=no damage to plant): 80
[5]; rate 130, evaluated after 15 d
  damage to plant (100=total damage to plant; 0=no damage to plant), ABUTH: 0
  damage to plant (100=total damage to plant; 0=no damage to plant), AMARE: 0
  damage to plant (100=total damage to plant; 0=no damage to plant), BIDPI: 0
  damage to plant (100=total damage to plant; 0=no damage to plant), BRAPL: 50
  damage to plant (100=total damage to plant; 0=no damage to plant), CYPES: 0
  damage to plant (100=total damage to plant; 0=no damage to plant), DIGSA: 0
  damage to plant (100=total damage to plant; 0=no damage to plant), ECHCG: 0
  damage to plant (100=total damage to plant; 0=no damage to plant), ELEIN: 0
  damage to plant (100=total damage to plant; 0=no damage to plant), EPHHL: 0
  damage to plant (100=total damage to plant; 0=no damage to plant), GLXMA: 0
  damage to plant (100=total damage to plant; 0=no damage to plant), IPOHE: 0
  damage to plant (100=total damage to plant; 0=no damage to plant), ORYSA: 0
  damage to plant (100=total damage to plant; 0=no damage to plant), PANMI: 0
  damage to plant (100=total damage to plant; 0=no damage to plant), SETFA: 0
  damage to plant (100=total damage to plant; 0=no damage to plant), SORVU: 0
[5]; rate 250, evaluated after 15 d
  damage to plant (100=total damage to plant; 0=no damage to plant), ABUTH: 0
  damage to plant (100=total damage to plant; 0=no damage to plant), AMARE: 0
  damage to plant (100=total damage to plant; 0=no damage to plant), BIDPI: 0
  damage to plant (100=total damage to plant; 0=no damage to plant), BRAPL: 60
  damage to plant (100=total damage to plant; 0=no damage to plant), CYPES: 0
  damage to plant (100=total damage to plant; 0=no damage to plant), DIGSA: 10
  damage to plant (100=total damage to plant; 0=no damage to plant), ECHCG: 0
  damage to plant (100=total damage to plant; 0=no damage to plant), ELEIN: 0
  damage to plant (100=total damage to plant; 0=no damage to plant), EPHHL: 10
  damage to plant (100=total damage to plant; 0=no damage to plant), GLXMA: 0
  damage to plant (100=total damage to plant; 0=no damage to plant), IPOHE: 0
  damage to plant (100=total damage to plant; 0=no damage to plant), ORYSA: 0
  damage to plant (100=total damage to plant; 0=no damage to plant), PANMI: 0
  damage to plant (100=total damage to plant; 0=no damage to plant), SETFA: 60
  damage to plant (100=total damage to plant; 0=no damage to plant), SORVU: 0
[5]; rate 500, evaluated after 15 d
  damage to plant (100=total damage to plant; 0=no damage to plant), ABUTH: 0
  damage to plant (100=total damage to plant; 0=no damage to plant), AMARE: 0
  damage to plant (100=total damage to plant; 0=no damage to plant), BIDPI: 0
  damage to plant (100=total damage to plant; 0=no damage to plant), BRAPL: 80
  damage to plant (100=total damage to plant; 0=no damage to plant), CYPES: 0
  damage to plant (100=total damage to plant; 0=no damage to plant), DIGSA: 60
  damage to plant (100=total damage to plant; 0=no damage to plant), ECHCG: 10
  damage to plant (100=total damage to plant; 0=no damage to plant), ELEIN: 10
  damage to plant (100=total damage to plant; 0=no damage to plant), EPHHL: 10
  damage to plant (100=total damage to plant; 0=no damage to plant), GLXMA: 0
  damage to plant (100=total damage to plant; 0=no damage to plant), IPOHE: 0
  damage to plant (100=total damage to plant; 0=no damage to plant), ORYSA: 0
  damage to plant (100=total damage to plant; 0=no damage to plant), PANMI: 0
  damage to plant (100=total damage to plant; 0=no damage to plant), SETFA: 60
  damage to plant (100=total damage to plant; 0=no damage to plant), SORVU: 0
